According to patent publication US11716992B2, “5A5B6C tricyclic spirolactone derivative, preparation method therefor and use thereof” (NANKAI UNIVERSITY, priority 2017, dated 2023):
Where “and” joins values, the source holds several entries; their conditions need not be identical. Equal values may be shown once. Read-outs that look alike come from different tables or passages of the source.

Columns and labels:
Caenorhabditis elegans = test: Insecticidal activity against Caenorhabditis elegans; format: in vivo; conditions: Caenorhabditis elegans, read-out: insecticidal activity, Caenorhabditis elegans
wheat Gibberella zeae = test: microbe, parasite or virus in culture; format: cell-based; conditions: for inhibition at 50 µg/mL: Fusarium graminearum, read-out: fungicidal activity (growth inhibition rate), GZ, 50 μg/mL
Physalospora piricola = test: Fungicidal activity, fungicide growth rate method, PP; format: cell-based; conditions: 50 μg/mL; for inhibition at 50 µg/mL: read-out: fungicidal activity (growth inhibition rate), PP
Sclerotinia sclerotiorum = test: Fungicidal activity, fungicide growth rate method, SS; format: cell-based; conditions: 50 μg/mL; for inhibition at 50 µg/mL: Sclerotinia sclerotiorum
[1] = system: Helicoverpa armigera (Hübner); test: Insecticidal activity against Helicoverpa armigera (Hübner); format: in vivo; conditions: for pest or weed control at 100 µg/mL: Helicoverpa armigera, read-out: insecticidal activity, Helicoverpa armigera (Hübner)
[2] = system: Apis mellifera ligustica Spin; conditions: for Death number after 24 h / Death number after 48 h: per replicate of 10 bees
[3] = system: Phytophthora infestans (Mont.) de Bary; test: microbe, parasite or virus in culture; format: cell-based; conditions: for inhibition at 50 µg/mL: Phytophthora infestans, read-out: fungicidal activity (growth inhibition rate), PI, 50 μg/mL
[4] = system: Mythimna separate (Walker); test: Insecticidal activity against Mythimna separate (Walker); format: in vivo; conditions: for pest or weed control at 100 µg/mL: Mythimna, read-out: insecticidal activity, Mythimna separate (Walker)
Pellicularia sasakii = test: Fungicidal activity, fungicide growth rate method, PS; format: cell-based; conditions: 50 μg/mL; for inhibition at 50 µg/mL: read-out: fungicidal activity (growth inhibition rate), PS
Alternaria solani = test: Fungicidal activity, fungicide growth rate method, AS; format: cell-based; conditions: 50 μg/mL; for inhibition at 50 µg/mL: Alternaria solani, read-out: fungicidal activity (growth inhibition rate), AS
Tobacco Mosaic Virus = test: Anti-TMV inactivation activity on tobacco plants; format: in vivo; set-up: concentration or dose not given beside the values; conditions: compound mixed with TMV solution 30 minutes, lesions checked three days later
Rhizoctonia cerealis = test: Fungicidal activity, fungicide growth rate method, RC; format: cell-based; conditions: 50 μg/mL; for inhibition at 50 µg/mL: Ceratobasidium cereale, read-out: fungicidal activity (growth inhibition rate), RC
Ostrinia furnacalis = test: Insecticidal activity against Ostrinia furnacalis; format: in vivo; conditions: for pest or weed control at 100 µg/mL: Ostrinia furnacalis, read-out: insecticidal activity, Ostrinia furnacalis
Cercospora arachidicola = test: Fungicidal activity, fungicide growth rate method, CA; format: cell-based; conditions: 50 μg/mL; for inhibition at 50 µg/mL: Mycosphaerella arachidis, read-out: fungicidal activity (growth inhibition rate), CA
Botrytis cinerea = test: Fungicidal activity, fungicide growth rate method, BC; format: cell-based; conditions: 50 μg/mL; for inhibition at 50 µg/mL: Botrytis cinerea, read-out: fungicidal activity (growth inhibition rate), BC

| Compound | pest or weed control at 100 µg/mL (Caenorhabditis elegans; 100 μg/mL) | inhibition at 50 µg/mL (wheat Gibberella zeae) | inhibition at 50 µg/mL (Physalospora piricola) | inhibition at 50 µg/mL (Sclerotinia sclerotiorum) | pest or weed control at 100 µg/mL ([1]; 100 μg/mL) | inhibition at 50 µg/mL [3] | pest or weed control at 100 µg/mL ([4]; 100 μg/mL) | inhibition at 50 µg/mL (Pellicularia sasakii) | inhibition at 50 µg/mL (Alternaria solani) | TMV inactivation (anti-TMV activity) (Tobacco Mosaic Virus) | inhibition at 50 µg/mL (Rhizoctonia cerealis) | pest or weed control at 100 µg/mL (Ostrinia furnacalis; 100 μg/mL) | inhibition at 50 µg/mL (Cercospora arachidicola) | inhibition at 50 µg/mL (Botrytis cinerea) | pest or weed control at 100 µg/mL (Caenorhabditis elegans) | pest or weed control at 100 µg/mL [1] | Death rate after 48 h (%) ([2]; dosage 19.8 μg a.i./bee) | Death number after 24 h ([2]; dosage 19.8 μg a.i./bee) | Death number after 48 h ([2]; dosage 19.8 μg a.i./bee) | pest or weed control at 100 µg/mL [4] | also measured |
| --- | --- | --- | --- | --- | --- | --- | --- | --- | --- | --- | --- | --- | --- | --- | --- | --- | --- | --- | --- | --- | --- |
| C=CC[C@@H]1C[C@]2(OC(C)=O)C[C@@H](OC(C)=O)O[C@@]23CC=CC[C@H]13 [Zyj07-37-1] | 20% | 0% | > 50% | > 50% | 15% | 15% | 20% | 0% | 14% | 16% | 7% | 10% | 14% | – | – | – | – | – | – | – | Death rate after 48 h (%) ([2]; dosage 7.55 μg a.i./bee): 0%; Death number after 24 h ([2]; dosage 7.55 μg a.i./bee): 0; Death number after 48 h ([2]; dosage 7.55 μg a.i./bee): 0; Death rate after 48 h (%) ([2]; dosage 15.3 μg a.i./bee): 0%; Death number after 24 h ([2]; dosage 15.3 μg a.i./bee): 0; Death number after 48 h ([2]; dosage 15.3 μg a.i./bee): 0 |
| C=CC[C@@H]1C[C@]2(O)C[C@H](O[C@]34CCO[C@@]35CC=CC[C@H]5[C@H](CC=C)C4)O[C@@]23CC=CC[C@H]13 [Zyj07-30-2] | – | – | – | – | – | – | – | – | – | 16% | – | – | – | – | – | – | – | – | – | – | fungicidal activity (growth inhibition rate), GZ (wheat Gibberella zeae; 50 μg/mL): 27%; fungicidal activity (growth inhibition rate), PP (Physalospora piricola): 48%; fungicidal activity (growth inhibition rate), SS (Sclerotinia sclerotiorum): 95%; insecticidal activity, Helicoverpa armigera (Hübner) ([1]; 100 μg/mL): 0%; fungicidal activity (growth inhibition rate), PI ([3]; 50 μg/mL): 14%; insecticidal activity, Mythimna separate (Walker) ([4]; 100 μg/mL): 0%; fungicidal activity (growth inhibition rate), PS (Pellicularia sasakii): 0%; fungicidal activity (growth inhibition rate), AS (Alternaria solani): 0%; fungicidal activity (growth inhibition rate), RC (Rhizoctonia cerealis): 0%; insecticidal activity, Ostrinia furnacalis (Ostrinia furnacalis; 100 μg/mL): 0%; fungicidal activity (growth inhibition rate), BC (Botrytis cinerea): 34%; fungicidal activity (growth inhibition rate), CA (Cercospora arachidicola): 73% |
| CO[C@@H]1C[C@]2(O)CC(=O)O[C@@]23CC=CC[C@H]13 [Zyj06-189] | 8% | 13% | > 50% | 0% | 0% | 23% | 0% | 23% | 0% | – | 29% | 0% | 24% | > 50% | – | – | – | – | – | – | Death rate after 48 h (%) ([2]; dosage 9.77 μg a.i./bee): 0%; Death number after 24 h ([2]; dosage 9.77 μg a.i./bee): 0; Death number after 48 h ([2]; dosage 9.77 μg a.i./bee): 0; Death rate after 48 h (%) ([2]; dosage 16.4 μg a.i./bee): 0%; Death number after 24 h ([2]; dosage 16.4 μg a.i./bee): 0; Death number after 48 h ([2]; dosage 16.4 μg a.i./bee): 0 |
| C=CC[C@@H]1C[C@]2(O[Si](C)(C)CC=C)CCO[C@@]23CC[C@H](O[Si](C)(C)CC=C)C[C@@H]13 [Zyj07-48] | – | 7% | 13% | > 50% | – | 19% | – | 14% | 0% | – | 0% | – | 35% | > 50% | 25% | 0% | 0% | 0 | 0 | 0% | Death rate after 48 h (%) ([2]; dosage 9.89 μg a.i./bee): 5.0%; Death number after 24 h ([2]; dosage 9.89 μg a.i./bee): 0; Death number after 48 h ([2]; dosage 9.89 μg a.i./bee): 0 and 1; pest or weed control at 100 µg/mL (Ostrinia furnacalis): 0% |
| CO[C@@H]1CC(=O)[C@@]2(O)CC=CC[C@H]12 [Zyj06-111-2] | > 30% | 47% | – | 10% | 50% | 31% | – | 0% | 14% | 24% | 0% | 40% | > 50% | 39% | – | – | – | – | – | – | – |
| C=CC[Si](C)(C)O[C@@]12CCO[C@@]13CC[C@H]1C[C@H]3[C@H](CC=CC[Si](C)(C)O1)C2 [Zyj07-49] | – | – | – | > 50% | – | 16% | – | 45% | – | 28% | – | – | – | 34% | 15% | 0% | 0% | 0 | 0 | 20% | Death rate after 48 h (%) ([2]; dosage 6.06 μg a.i./bee): 0%; Death number after 24 h ([2]; dosage 6.06 μg a.i./bee): 0; Death number after 48 h ([2]; dosage 6.06 μg a.i./bee): 0; pest or weed control at 100 µg/mL (Ostrinia furnacalis): 0% |
